Experimental data published in US11129829B2, “Methods for modulating splicing” (Skyhawk Therapeutics, Inc., priority 2019, dated 2021).
Read-outs that look alike come from different tables or passages of the source.

Tests used:
Type in all cases: cell-based
[1] = tested on: A-673; assay: A-673 cell viability
[2] = tested on: Target 2; assay: qPCR assay, Target 2 splicing potency (poison exon 12c inclusion); details: for IC50: WT transcript; for EC50: poison exon E12c inclusion
Method: (§1) A-673 or SK-N-MC cells were treated with different concentrations of SMSM compounds or DMSO for 24 hours. After the first 16 hours, cells were treated with 100 ug/ml of cycloheximide (CHX) for 8 hours to inhibit protein translation and nonsense-mediated decay (NMD). Cells were lysed with RNA lysis buffer and RNAs were purified using standard methods. After cDNA synthesis, samples were analyzed by qPCR using target transcript specific Taqman primers/probes (FIGS. 7, 19, 20, and 29). Absolute copy numbers were determined using standard curves from G-block DNA fragments (FIGS. 8, 9, and 21). Relative gene expression was determined by comparing the gene expression in the presence of an SMSM and DMSO (FIGS. 10-16 and 22-28).

[3] = tested on: Target 1; assay: qPCR assay, Target 1 splicing potency (poison exons 7b and 7c inclusion); details: for IC50: WT transcript
Method: as §1

[4] = tested on: FoxM1 A mRNA; assay: Splice EC50: FoxM1 A mRNA increase (exon excluded); details: read-out: Splice EC50 (nM)^B
[5] = tested on: FoxM1 BC mRNA; assay: Splice IC50: FoxM1 BC mRNA decrease (exon included); details: read-out: Splice IC50 (nM)^C
[6] = poison exon E7b inclusion, read-out: Target 1 Splicing Potency E7b EC50
[7] = poison exon E7c inclusion, read-out: Target 1 Splicing Potency E7c EC50
[8] = Homo sapiens, A673, Cell viability

Row | Compound | IC50 ([1]; Cell viability) [nM] | IC50 [2] [nM] | EC50 [2] [nM] | IC50 [3] [nM] | EC50 [3, 6] [nM] | EC50 [3, 7] [nM] | IC50 [1, 8] [nM] | EC50 [4] [nM] | IC50 [5] [nM]
1 | 2-(6-(((1R,3S,5S)-1,5-dimethyl-8-azabicyclo[3.2.1]octan-3-yl)(methyl)amino)pyridazin-3-yl)-5-(l-(methyl-d3)-1H-pyrazol-4-yl)phenol [compound 171] | 10 to 100 | – | – | – | – | – | – | – | –
2 | 6-(6-(((1R,3S,5S)-8-azabicyclo[3.2.1]octan-3-yl)(methyl)amino)pyridazin-3-yl)quinolin-7-ol [compound 162] | 251 to 500 | – | – | – | – | – | – | – | –
3 | CN(c1ccc(-c2cc(F)c(-c3cn[nH]c3)cc2O)nn1)[C@@H]1C[C@H]2CCC[C@@H](C1)N2 [SMSM 70807, 4-fluoro-2-(6-{methyl[(1R,3S,5S)-9-azabicyclo[3.3.1]nonan-3-yl]amino}pyridazin-3-yl)-5-(1H-pyrazol-4-yl)phenol] | – | 50.8 | 540 | 46 | 168 | 162 | – | – | –
4 | CNC(=O)/C=C/c1cc(O)c(-c2ccc(N(C)[C@@H]3C[C@H]4CCC[C@@H](C3)N4)nn2)cc1F [SMSM 70808, (2E)-3-{4-[6-({9-azabicyclo[3.3.1]nonan-3-yl}(methyl)amino)pyridazin-3-yl]-2-fluoro-5-hydroxyphenyl}-N-methylprop-2-enamide] | – | 149 | 606 | 104 | 47.5 | 348 | – | – | –
5 | CN(c1ccc(-c2ccc(-c3cnn(CF)c3)cc2O)nn1)[C@H]1C[C@]2(C)CC[C@](C)(C1)N2 [SMSM 70810, 2-(6-{[(1R,3S,5S)-1,5-dimethyl-8-azabicyclo[3.2.1]octan-3-yl](methyl)amino}pyridazin-3-yl)-5-[1-(fluoromethyl)-1H-pyrazol-4-yl]phenol] | – | 220 | 418 | 236 | 180 | 1050 | – | – | –
6 | COc1cc(-c2ccc(-c3ccc(N(C)[C@H]4C[C@]5(C)CC[C@](C)(C4)N5)nn3)c(O)c2)cnn1 [SMSM 70812, 2-(6-{[(1R,3S,5S)-1,5-dimethyl-8-azabicyclo[3.2.1]octan-3-yl](methyl)amino}pyridazin-3-yl)-5-(6-methoxypyridazin-4-yl)phenol] | – | 169 | 355 | 178 | 174 | 754 | – | – | –
7 | CNC(=O)/C=C/c1cc(O)c(-c2ccc(N(C)[C@H]3C[C@]4(C)CCC[C@](C)(C3)N4)nn2)cc1F [SMSM 70813, (2E)-3-[2-fluoro-5-hydroxy-4-(6-{methyl[(1R,3S,5S)-1,5-dimethyl-9-azabicyclo[3.3.1]nonan-3-yl]amino}pyridazin-3-yl)phenyl]-N-methylprop-2-enamide] | – | 162 | 126 | 99.1 | 41 | 310 | – | – | –
8 | CN(c1ccc(-c2ccc(-c3ccn(C)c(=O)c3)cc2O)nn1)[C@H]1C[C@]2(C)CCC[C@](C)(C1)N2 [SMSM 70814, 4-[3-hydroxy-4-(6-{methyl[(1R,3S,5S)-1,5-dimethyl-9-azabicyclo[3.3.1]nonan-3-yl]amino}pyridazin-3-yl)phenyl]-1-methyl-1,2-dihydropyridin-2-one] | – | 110 | – | 102 | 89.2 | 538 | – | – | –
9 | CN(c1ccc(-c2cc(F)c(-c3ccn(C)c(=O)c3)cc2O)nn1)[C@H]1C[C@]2(C)CCC[C@](C)(C1)N2 [SMSM 70815, 4-[2-fluoro-5-hydroxy-4-(6-{methyl[(1R,3S,5S)-1,5-dimethyl-9-azabicyclo[3.3.1]nonan-3-yl]amino}pyridazin-3-yl)phenyl]-1-methyl-1,2-dihydropyridin-2-one] | – | 116 | 238 | 105 | 59.8 | 423 | – | – | –
10 | CN(c1ccc(-c2cc(F)c(-c3cc(=O)n(C)cn3)cc2O)nn1)[C@H]1C[C@]2(C)CC[C@](C)(C1)N2 [SMSM 70816, 6-(4-(6-(((1R,3S,5S)-1,5-dimethyl-8-azabicyclo[3.2.1]octan-3-yl)(methyl)amino)pyridazin-3-yl)-2-fluoro-5-hydroxyphenyl)-3-methylpyrimidin-4(3H)-one] | – | 225 | 634 | 215 | 171 | 737 | – | – | –
11 | COc1cc(-c2ccc(-c3ccc(N(C)[C@H]4C[C@]5(C)CC[C@](C)(C4)N5)nn3)c(O)c2)ncn1 [SMSM 70817, 2-(6-{[(1R,3S,5S)-1,5-dimethyl-8-azabicyclo[3.2.1]octan-3-yl](methyl)amino}pyridazin-3-yl)-5-(6-methoxypyrimidin-4-yl)phenol] | – | 930 | 1160 | 707 | 941 | 2910 | – | – | –
12 | CN(c1ccc(-c2cc(F)c(-c3ccn(CF)c(=O)c3)cc2O)nn1)[C@H]1C[C@]2(C)CCC[C@](C)(C1)N2 [SMSM 70819, 4-[2-fluoro-5-hydroxy-4-(6-{methyl[(1R,3S,5S)-1,5-dimethyl-9-azabicyclo[3.3.1]nonan-3-yl]amino}pyridazin-3-yl)phenyl]-1-(fluoromethyl)-1,2-dihydropyridin-2-one] | – | 94.7 | 92.9 | 93.9 | 88 | 293 | – | – | –
13 | COc1cc(-c2ccc(-c3ccc(N(C)[C@H]4C[C@]5(C)CCC[C@](C)(C4)N5)nn3)c(O)c2)cnn1 [SMSM 70820, 5-(6-methoxypyridazin-4-yl)-2-(6-{methyl[(1R,3S,5S)-1,5-dimethyl-9-azabicyclo[3.3.1]nonan-3-yl]amino}pyridazin-3-yl)phenol] | – | 166 | 530 | 142 | 111 | 627 | – | – | –
14 | CNC(=O)/C=C/c1cc(O)c(-c2ccc(N(C3CC3)[C@H]3C[C@]4(C)CC[C@](C)(C3)N4)nn2)cc1F [SMSM 70823, (E)-3-(4-(6-(cyclopropyl((1R,3S,5S)-1,5-dimethyl-8-azabicyclo[3.2.1]octan-3-yl)amino)pyridazin-3-yl)-2-fluoro-5-hydroxyphenyl)-N-methylacrylamide] | – | 463 | 344 | 328 | 170 | 898 | – | – | –
15 | CNC(=O)c1ccc2cc(-c3ccc(N(C)[C@H]4C[C@]5(C)CCC[C@](C)(C4)N5)nn3)c(O)cc2n1 [SMSM 70824, 7-hydroxy-N-methyl-6-(6-{methyl[(1R,3S,5S)-1,5-dimethyl-9-azabicyclo[3.3.1]nonan-3-yl]amino}pyridazin-3-yl)quinoline-2-carboxamide] | – | 54 | 46.1 | 27.6 | 9.3 | 60.2 | – | – | –
16 | CNC(=O)/C=C/c1cc(O)c(-c2ccc(N(C3CC3)[C@H]3C[C@]4(C)CCC[C@](C)(C3)N4)nn2)cc1F [SMSM 70826, (2E)-3-[4-(6-{cyclopropyl[(1R,3S,5S)-1,5-dimethyl-9-azabicyclo[3.3.1]nonan-3-yl]amino}pyridazin-3-yl)-2-fluoro-5-hydroxyphenyl]-N-methylprop-2-enamide] | – | 337 | 304 | 177 | 257 | 887 | – | – | –
17 | Oc1cc(-c2cn[nH]c2)ccc1-c1ccc(O[C@@H]2C[C@H]3COC[C@@H](C2)N3)nn1 [compound 159, 2-(6-(((1R,5S,7r)-3-oxa-9-azabicyclo[3.3.1]nonan-7-yl)oxy)pyridazin-3-yl)-5-(1H-pyrazol-4-yl)phenol] | – | – | – | – | – | – | 501 to 1000 | 251 to 500 | 501 to 1000
18 | Cc1cn(-c2ccc(-c3ccc(N(C)[C@H]4C[C@]5(C)CC[C@](C)(C4)N5)nn3)c(O)c2)cn1 [compound 177, 2-(6-(((1R,3S,5S)-1,5-dimethyl-8-azabicyclo[3.2.1]octan-3-yl)(methyl)amino)pyridazin-3-yl)-5-(4-methyl-1H-imidazol-1-yl)phenol] | – | – | – | – | – | – | 10 to 100 | < 10 | < 10
19 | Oc1cc(-c2c[nH]nn2)ccc1-c1ccc(O[C@@H]2C[C@H]3CC[C@@H](C2)N3)nn1 [compound 253, 2-(6-(((1R,3S,5S)-8-azabicyclo[3.2.1]octan-3-yl)oxy)pyridazin-3-yl)-5-(1H-1,2,3-triazol-4-yl)phenol] | – | – | – | – | – | – | 501 to 1000 | 251 to 500 | 251 to 500
20 | Oc1cc(-c2cn[nH]c2)c(F)cc1-c1ccc(O[C@@H]2C[C@H]3CCC[C@@H](C2)N3)nn1 [compound 278, 2-(6-(((1R,3S,5S)-9-azabicyclo[3.3.1]nonan-3-yl)oxy)pyridazin-3-yl)-4-fluoro-5-(1H-pyrazol-4-yl)phenol] | – | – | – | – | – | – | 10 to 100 | – | –
21 | CN(C)C(=O)c1cc2cc(O)c(-c3ccc(N(C)[C@@H]4C[C@H]5CCC[C@@H](C4)N5)nn3)cc2o1 [compound 295, 6-(6-(((1R,3S,5S)-9-azabicyclo[3.3.1]nonan-3-yl)(methyl)amino)pyridazin-3-yl)-5-hydroxy-N,N-dimethylbenzofuran-2-carboxamide] | – | – | – | – | – | – | 251 to 500 | – | –
22 | CN(C)C(=O)c1cc2cc(-c3ccc(N(C)[C@@H]4C[C@H]5CCC[C@@H](C4)N5)nn3)c(O)cc2o1 [compound 298, 5-(6-(((1R,3S,5S)-9-azabicyclo[3.3.1]nonan-3-yl)(methyl)amino)pyridazin-3-yl)-6-hydroxy-N,N-dimethylbenzofuran-2-carboxamide] | – | – | – | – | – | – | 10 to 100 | – | –
23 | CN(c1ccc(-c2ccc(-c3cnn(C(F)F)c3)cc2O)nn1)[C@@H]1C[C@H]2CCC[C@@H](C1)N2 [compound 301, 2-(6-(((1R,3S,5S)-9-azabicyclo[3.3.1]nonan-3-yl)(methyl)amino)pyridazin-3-yl)-5-(l-(difluoromethy)-1H-pyrazol-4-yl)phenol] | – | – | – | – | – | – | 10 to 100 | – | –
